Measurements reported in ChEMBL document CHEMBL3137667, “[Drug-induced liver injury; fourteenth updated edition of the bibliographic database of liver injuries and related drugs]” (Gastroenterol Clin Biol, 2004).

Legend:
[1] = Highest frequency of moderate liver toxicity observed during clinical trials, expressed as a percentage. [column '% BIOL' in source]; details: human
[2] = Highest frequency of acute liver toxicity observed during clinical trials, expressed as a percentage. [column '% AIGUE' in source]; details: human
[3] = human, serum
[4] = human, serum; remark: listed apart in the source
[5] = human
[6] = human; remark: listed apart in the source
[7] = human; remark: listed apart in the source
[8] = human, serum, 4383 h
[9] = human; remark: listed apart in the source
[10] = human; remark: listed apart in the source
[11] = human; remark: listed apart in the source
[12] = human; remark: listed apart in the source
[13] = human; remark: listed apart in the source
[14] = human; remark: listed apart in the source
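For Hepatotoxicity (association with vascular disease) in this document: count of indexed literature references reporting vascular liver injury in humans, e.g. peliosis hepatitis, hepatic veno-occlusive disease or Budd-Chiari syndrome.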
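For Hepatotoxicity (benign tumour) in this document: value is a count of indexed literature references citing a benign tumour confirmed by histopathology.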
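For Hepatotoxicity (choleostasis) in this document: human cholestatic liver injury, shown by histopathology or by peak ALT or AST elevation over alkaline phosphatase ratio below 2, value counts indexed literature reports.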
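For Hepatotoxicity (chronic liver disease) in this document: chronic liver injury confirmed by histopathology or persistently raised serum aminotransferase activity beyond 6 months, value given as the count of indexed literature references.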
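For Hepatotoxicity (cirrhosis) in this document: value is a count of indexed literature references reporting cirrhosis confirmed by histopathology.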
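For Hepatotoxicity (cytolytic) in this document: human cytolytic liver injury, shown by histopathology or by a ratio above 5 of peak ALT or AST elevation to alkaline phosphatase elevation, value counts indexed references.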
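For Hepatotoxicity (granulomatous hepatitis) in this document: value is a count of indexed literature references reporting granulomatous liver disease confirmed by histopathology.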
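For Hepatotoxicity (malignant tumour) in this document: malignant tumour confirmed by histopathology, value gives the count of indexed literature references reporting it.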
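For Hepatotoxicity (severe hepatitis) in this document: human clinical data: severe hepatitis, meaning potentially life-threatening liver failure or clinically observed cases, the value counts how many indexed literature references report it.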
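For Hepatotoxicity (steatosis) in this document: steatosis confirmed by histopathology, value is the count of indexed references.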

Row | SMILES | Hepatotoxicity (moderate) [1] [%] | Hepatotoxicity (acute) [2] [%] | Hepatotoxicity (moderate) [3] | Hepatotoxicity (acute) [4] | Hepatotoxicity (cytolytic) [5] | Hepatotoxicity (choleostasis) [6] | Hepatotoxicity (severe hepatitis) [7] | Hepatotoxicity (chronic liver disease) [8] | Hepatotoxicity (cirrhosis) [9] | Hepatotoxicity (granulomatous hepatitis) [10] | Hepatotoxicity (association with vascular disease) [11] | Hepatotoxicity (steatosis) [12] | Hepatotoxicity (malignant tumour) [13] | Hepatotoxicity (benign tumour) [14] | Hepatotoxicity (moderate) ([1]; Liver) [%] | Hepatotoxicity (acute) ([2]; Liver) [%] | Hepatotoxicity (severe hepatitis) ([7]; Liver) | Hepatotoxicity (cytolytic) ([5]; Liver) | Hepatotoxicity (choleostasis) ([6]; Liver) | Hepatotoxicity (granulomatous hepatitis) ([10]; Liver)
1 | CCn1cc(C(=O)O)c(=O)c2cnc(N3CCNCC3)nc21 [PIPEMIDIC ACID] | 0 | 0 | 1 | 0 | 0 | 0 | 0 | 0 | 0 | 0 | 0 | 0 | 0 | 0 | – | – | – | – | – | –
2 | CC(=O)c1ccc2c(c1)N(CCCN1CCC(CCO)CC1)c1ccccc1S2 [PIPERACETAZINE] | 39 | 0 | 1 | 0 | 0 | 0 | 0 | 0 | 0 | 0 | 0 | 0 | 0 | 0 | – | – | – | – | – | –
3 | CN(C)S(=O)(=O)c1ccc2c(c1)N(CCCN1CCC(CCO)CC1)c1ccccc1S2 [PIPOTIAZINE] | 1.9 | 0 | 1 | 0 | 0 | 0 | 0 | 0 | 0 | 0 | 0 | 0 | 0 | 0 | – | – | – | – | – | –
4 | COc1cccc2c1C(=O)c1c(O)c3c(c(O)c1C2=O)C[C@@](O)(C(=O)CO)C[C@@H]3O[C@H]1C[C@H](N)[C@H](O[C@@H]2CCCCO2)[C@H](C)O1 [PIRARUBICIN] | 1.1 | 0 | 1 | 0 | 0 | 0 | 0 | 0 | 0 | 0 | 0 | 0 | 0 | 0 | – | – | – | – | – | –
5 | CN1CCN(CC(=O)N2c3ccccc3C(=O)Nc3cccnc32)CC1 [PIRENZEPINE] | 0.7 | 0 | 2 | 0 | 0 | 0 | 0 | 0 | 0 | 0 | 0 | 0 | 0 | 0 | – | – | – | – | – | –
6 | Cc1cccc(Nc2cc(Cl)nc(SCC(=O)NCCO)n2)c1C [PIRINIXIL] | 0 | 0 | 1 | 0 | 0 | 0 | 0 | 0 | 0 | 0 | 0 | 0 | 0 | 0 | – | – | – | – | – | –
7 | CC1CCCC(C)N1CCCC(O)(c1ccccc1)c1ccccn1 (centres undefined) [PIRMENOL] | 5.3 | 0 | 1 | 0 | 0 | 0 | 0 | 0 | 0 | 0 | 0 | 0 | 0 | 0 | – | – | – | – | – | –
8 | NCCCNc1ccc2c3c(nn2CCNCCO)-c2c(O)ccc(O)c2C(=O)c13 [PIROXANTRONE] | 9.1 | 0 | 4 | 0 | 0 | 0 | 0 | 0 | 0 | 0 | 0 | 0 | 0 | 0 | – | – | – | – | – | –
9 | CCc1[nH]c(=O)[nH]c1C(=O)c1ccncc1 [PIROXIMONE] | 0 | 0 | 0 | 1 | 0 | 0 | 0 | 0 | 0 | 0 | 0 | 0 | 0 | 0 | – | – | – | – | – | –
10 | O=C(O)C[C@H](O)C[C@H](O)/C=C/c1c(C2CC2)nc2ccccc2c1-c1ccc(F)cc1 [PITAVASTATIN] | – | – | 1 | 0 | 0 | 0 | – | 0 | 0 | 0 | 0 | 0 | 0 | 0 | 1.7 | 0 | 0 | – | – | –
11 | CC(C)(C)C(=O)OCOC(=O)[C@@H]1N2C(=O)[C@@H](NC(=O)[C@H](N)c3ccccc3)[C@H]2SC1(C)C [PIVAMPICILLIN] | 0 | 0 | 0 | 1 | 1 | 0 | 0 | 0 | 0 | 0 | 0 | 0 | 0 | 0 | – | – | – | – | – | –
12 | CC(C)(Oc1ccc(Cl)cc1)C(=O)NC(=O)NCN1CCOCC1 [PLAFIBRIDE] | 20 | 0 | 1 | 0 | 0 | 0 | 0 | 0 | 0 | 0 | 0 | 0 | 0 | 0 | – | – | – | – | – | –
13 | CN1C(CSCC(F)(F)F)Nc2cc(Cl)c(S(N)(=O)=O)cc2S1(=O)=O (centres undefined) [POLYTHIAZIDE] | 0 | 0 | 0 | 1 | 1 | 1 | 0 | 0 | 0 | 0 | 0 | 0 | 0 | 0 | – | – | – | – | – | –
14 | CCCN[C@H]1CCc2nc(N)sc2C1 [PRAMIPEXOLE] | – | – | 1 | 0 | – | – | – | 0 | 0 | – | 0 | 0 | 0 | 0 | 7.1 | 0 | 0 | 0 | 0 | 0
15 | COc1cc2nc(N3CCN(C(=O)c4ccco4)CC3)nc(N)c2cc1OC [PRAZOSIN] | – | – | 0 | 1 | 0 | 1 | – | 0 | 0 | 0 | 0 | 0 | 0 | 0 | 0 | 0.2 | 0 | – | – | –
16 | CC(C)(Sc1cc(C(C)(C)C)c(O)c(C(C)(C)C)c1)Sc1cc(C(C)(C)C)c(O)c(C(C)(C)C)c1 [PROBUCOL] | 0 | 0 | 2 | 0 | 0 | 0 | 0 | 0 | 0 | 0 | 0 | 0 | 0 | 0 | – | – | – | – | – | –
